From patent US8153360B2, “Flavivirus fusion inhibitors” (The Administrators of the Tulane Educational Fund, priority 2002, dated 2012)

Legend:
[1] = system: H77-E1E2 pseudotype expressing envelope glycoproteins E1 and E2 of the H77 strain of HCV; assay: HCV pseudotype infectivity, luciferase activity of cell lysates; format: cell-based, hepatitis C virus; details: peptide about 25 μM (asterisked peptides 10 μM or less); for H77-E1E2 number of luciferase units (lumens) produced after infection: 72 h at 37° C., vehicle 113,733; for Percent Inhibition (H77-E1E2 HCV pseudotype infectivity): relative to DMSO vehicle
[2] = system: pseudotype expressing the envelope glycoprotein of murine leukemia virus (MLV); assay: MLV pseudotype infectivity, luciferase activity (peptide/cytotoxicity control); format: cell-based; details: peptide about 25 μM (asterisked peptides 10 μM or less); for MLV number of luciferase units (lumens) produced after infection: 72 h at 37° C., vehicle 439,158; for Percent inhibition (MLV pseudotype infectivity): relative to DMSO vehicle
[3] = system: HIV-1; details: preliminary results from phase III clinical trials; cited from earlier work
[4] = system: HIV-1; details: cited from earlier work

Substance | H77-E1E2 number of luciferase units (lumens) produced after infection [1] | MLV number of luciferase units (lumens) produced after infection [2] | Percent inhibition (MLV pseudotype infectivity) [2] | Percent Inhibition (H77-E1E2 HCV pseudotype infectivity) [1] | Effect on HIV-1 load in AIDS patients [3] | Inhibition of HIV-1 infectivity [4]
AALVVAQLLRIPQAIMDM [Peptide 73] | 100,666 luciferase units (lumens) | 433,001 luciferase units (lumens) | 1.40% | – | – | –
AHWGVLAGIKYFSMVGNW [Peptide 76] | 96,283 luciferase units (lumens) | 473,757 luciferase units (lumens) | −7.88% | – | – | –
ALYVGDLCGSVFLVGQLF [Peptide 65] | 87,726 luciferase units (lumens) | 491,789 luciferase units (lumens) | −11.98% | – | – | –
CGSVFLVGQLFTFSPRHH [Peptide 66] | 23,387 luciferase units (lumens) | 189,683 luciferase units (lumens) | 56.81% | – | – | –
DAILHTPGCVPCVREGNA [Peptide 57] | 169,860 luciferase units (lumens) | 331,852 luciferase units (lumens) | 24.44% | – | – | –
GCVPCVREGNASRCWVAV [Peptide 58] | 118,767 luciferase units (lumens) | 329,895 luciferase units (lumens) | 24.98% | – | – | –
GIKYFSMVGNWAKVLVVL [Peptide 77] | 56,425 luciferase units (lumens) | 321,076 luciferase units (lumens) | 26.89% | – | – | –
GQLFTFSPRHHWTTQDCN [Peptide 67] | 64,601 luciferase units (lumens) | 357,577 luciferase units (lumens) | 28.58% | – | – | –
GSATLCSALYVGDLCGSV [Peptide 64] | 113,108 luciferase units (lumens) | 316,948 luciferase units (lumens) | 27.83% | – | – | –
HRMANMMMNWSPTAALV [Peptide 71] | 83,489 luciferase units (lumens) | 533,765 luciferase units (lumens) | −21.54% | – | – | –
IMDMIAGAHWGVLAGIKY [Peptide 75] | 113,359 luciferase units (lumens) | 420,026 luciferase units (lumens) | 4.36% | – | – | –
LLRIPQAIMDMIAGAHWG [Peptide 74] | 32,888 luciferase units (lumens) | 467,876 luciferase units (lumens) | −6.54% | – | – | –
LPTTQLRRHIDLLVGSAT [Peptide 62] | 115,966 luciferase units (lumens) | 415,014 luciferase units (lumens) | 5.50% | – | – | –
LVVLLLFAGVDAETHVTG [Peptide 79] | 101,702 luciferase units (lumens) | 740,034 luciferase units (lumens) | −68.51% | – | – | –
MMNWSPTAALVVAQLLRI [Peptide 72] | 75,763 luciferase units (lumens) | 392,680 luciferase units (lumens) | 10.58% | – | – | –
PRHHWTTQDCNCSIYPGH [Peptide 68] | 79,297 luciferase units (lumens) | 498,991 luciferase units (lumens) | −13.62% | – | – | –
QDCNCSIYPGHITGHRMA [Peptide 69] | 196,922 luciferase units (lumens) | 354,027 luciferase units (lumens) | 19.39% | – | – | –
RHIDLLVGSATLCSALYV [Peptide 63] | 57,915 luciferase units (lumens) | 438,440 luciferase units (lumens) | 0.16% | – | – | –
SAYQVRNSSGLYHVTNDC [Peptide 53] | 113,469 luciferase units (lumens) | 443,528 luciferase units (lumens) | −9.95% | – | – | –
SCLTVPASAYQVRNSSGL [Peptide 52] | 133,259 luciferase units (lumens) | 533,179 luciferase units (lumens) | −21.4% | – | – | –
SIVYEAADAILHTPGCVP [Peptide 56] | 65,612 luciferase units (lumens) | 433,459 luciferase units (lumens) | 1.30% | – | – | –
SSGLYHVTNDCPNSSIVY [Peptide 54] | 74 luciferase units (lumens) | 280,113 luciferase units (lumens) | 36.22% | – | – | –
TNDCPNSSVVYEAADAIL [Peptide 55] | 112,470 luciferase units (lumens) | 447,957 luciferase units (lumens) | −2.00% | – | – | –
VATRDGKLPTTQLRRHID [Peptide 61] | 148,796 luciferase units (lumens) | 423,925 luciferase units (lumens) | 3.47% | – | – | –
VGNWAKVLVVLLLFAGVD [Peptide 78] | 137,700 luciferase units (lumens) | 402,953 luciferase units (lumens) | 8.24% | – | – | –
WVAVTPTVATRDGKLPTT [Peptide 59] | 91,794 luciferase units (lumens) | 446,063 luciferase units (lumens) | −1.57% | 19.29% | – | –
WVAVTPTVATRDGKLPTT [Peptide 60] | 98,766 luciferase units (lumens) | 340,384 luciferase units (lumens) | 22.49% | 13.16% | – | –
YPGHITGHRMANMMMNW [Peptide 70] | 15,717 luciferase units (lumens) | 553,120 luciferase units (lumens) | −25.95% | – | – | –
enfuvirtide | – | – | – | – | substantially reduce HIV-1 load | inhibit HIV-1 infectivity
